Results from US12258609B2, “Method for producing glycerides of hydroxycarboxylic acids” (KetoLipix Therapeutics GmbH, priority 2019, dated 2025).
Like-named read-outs stand apart in the source and are kept apart here.

Columns and labels:
[1] = tested on: porcine pancreatic lipase type II (PPL type II)
Experimental: (§1) Further Cleavage with Bowl Medium: FaSSIF Medium • The FaSSIF medium is prepared according to the previous test according to the manufacturer's instructions. • The resulting sample is divided into two batches of equal size. 10 wt.-% of the ternary glyceride mixture of mono-, di- and triglycerides of 3-hydroxybutyric acids according to the invention is dissolved in each FaSSIF medium and left in a water bath at 35° C. for 24 hours.

[2] = tested on: Panzytrat® 40,000 (pancreatin); assay: Cleavage experiments with and without Panzytrat 40,000 in FaSSIF medium (simulates the intestinal tract, pH 6.5); details: for change of content in FaSSIF medium: pH 6.5, 35° C., 24 hours, with and without pancreatin; for share in chromatogram, FaSSIF 0 h, Start / share in chromatogram, FaSSIF m.P. 24 h, 35° C. / share in chromatogram, FaSSIF o.P. 24 h, 35° C.: the 11th table, FaSSIF (bowel, pH = 6.5); for share in chromatogram, FaSSIF m.P. 24 h, 35° C.: with Panzytrat; for share in chromatogram, FaSSIF o.P. 24 h, 35° C.: without Panzytrat; for with Panzytrat 24 h, 35° C. / without Panzytrat 24 h, 35° C. / before splitting 0 h: the 13th table, in %; for with Panzytrat 24 h, 35° C.: FaSSIF medium pH 6.5, 1 wt.-% Panzytrat 40,000, 24 h; for without Panzytrat 24 h, 35° C.: FaSSIF medium pH 6.5, without Panzytrat; for before splitting 0 h: FaSSIF medium
Experimental: (§2) For the cleavage experiments under near-body conditions two media are investigated: • FaSSGF, which simulates the stomach • FaSSIF, which simulates the intestinal tract
(§3) Both media are from the company Biorelevant®, Ltd. in Great Britain. In addition, in some experiments porcine pancreas is added (Panzytrat® 40,000, Fa. Allergan).
(§4) Cleavage with Bowl Medium: FaSSIF Medium • The FaSSIF medium is prepared according to the manufacturer's instructions (Fa. Biorelevant, Ltd., Great Britain). • The sample obtained is divided into two equally sized preparations. 10 wt.-% of the aforementioned glyceride mixture based on a mixture of mono-, di- and triglycerides of 3-hydroxybutyric acids is dissolved in each FaSSIF medium and left in a water bath at 35° C. for 24 hours.

[3] = even if several grams are taken; acid and its salts; cited from earlier work
[4] = tested on: Panzytrat® 40,000 (pancreatin)
Experimental: as §2
(§5) In addition, in some experiments porcine pancreas is added (Panzytrat® 40,000, Fa. Allergan).
(§6) Cleavage with Gastric Medium: FaSSGF Medium • A so-called FaSSGF medium is prepared according to the manufacturer's specifications from the commercially available corresponding composition (available from Biorelevant, Ltd., Great Britain). • The resulting sample is divided into two batches of equal size. 10 wt.-% of the ternary glyceride mixture based on mono-, di- and triglycerides of 3-hydroxybutyric acid, as described hereinabove, is dissolved in each FaSSGF medium and left in a water bath at 35° C. for 24 hours.

[5] = tested on: porcine pancreatic lipase type II (PPL type II); assay: Cleavage experiments with and without porcine pancreatic lipase in FaSSIF medium; details: for with enzyme, 24 h, 35° C. / without enzyme 24 h, 35° C. / before splitting 0 h: the 14th table; for with enzyme, 24 h, 35° C.: FaSSIF medium pH 6.5, 1 wt.-% porcine pancreatic lipase type II; for without enzyme 24 h, 35° C.: FaSSIF medium pH 6.5, without enzyme; for before splitting 0 h: FaSSIF medium
Experimental: as §1

[6] = tested on: Panzytrat® 40,000 (pancreatin); assay: Cleavage experiments with and without Panzytrat 40,000 in FaSSGF medium (simulates the stomach, pH 1.6); details: for change of content in FaSSGF medium: pH 1.6, 35° C., 24 hours, both with and without pancreatin; for share in chromatogram, FaSSGF m.P. 24 h, 35° C. / share in chromatogram, FaSSGF o.P. 24 h, 35° C. / share in chromatogram, before splitting: the 11th table; for share in chromatogram, FaSSGF m.P. 24 h, 35° C. / share in chromatogram, FaSSGF o.P. 24 h, 35° C.: FaSSGF (stomach, pH = 1.6); for share in chromatogram, FaSSGF m.P. 24 h, 35° C.: with Panzytrat; for share in chromatogram, FaSSGF o.P. 24 h, 35° C.: without Panzytrat; for share in chromatogram, before splitting: starting mixture (crude high-boiling fraction) before splitting; for before splitting: the 12th table, FaSSGF medium
Experimental: as §2, §5, §6

[7] = tested on: pancreatin (Panzytrat® 40,000); assay: Cleavage experiments with pancreatin in water, acid number over time; type: in vitro ADME, porcine; details: test repeated on individual glycerides, 50° C.
[8] = tested on: Panzytrat® 40,000 (pancreatin); remark: listed apart in the source
Experimental: as §2, §3, §4

Row | before splitting 0 h ([1]; 0 h, 10 wt.-%, pH 6.5) | without enzyme 24 h, 35° C. ([1]; 24 h, 10 wt.-%, pH 6.5) | with enzyme, 24 h, 35° C. ([1]; pig, 24 h, 10 wt.-%, pH 6.5) | before splitting ([4]; 0 h) | share in chromatogram, before splitting ([4]; 0 h, 10 wt.-%, pH 1.6) | share in chromatogram, FaSSGF o.P. 24 h, 35° C. ([4]; 24 h, 10 wt.-%, pH 1.6) | share in chromatogram, FaSSGF m.P. 24 h, 35° C. ([4]; pig, 24 h, 10 wt.-%, pH 1.6) | SMILES | share in chromatogram, FaSSIF 0 h, Start [2] | share in chromatogram, FaSSIF m.P. 24 h, 35° C. [2] | share in chromatogram, FaSSIF o.P. 24 h, 35° C. [2] | with Panzytrat 24 h, 35° C. [2] | without Panzytrat 24 h, 35° C. [2] | before splitting 0 h [2] | with enzyme, 24 h, 35° C. [5] | without enzyme 24 h, 35° C. [5] | before splitting 0 h [5] | share in chromatogram, FaSSGF m.P. 24 h, 35° C. [6] | share in chromatogram, FaSSGF o.P. 24 h, 35° C. [6] | share in chromatogram, before splitting [6] | before splitting [6] | other results
1 | 0.04% | 0.02% | 1.79% | 0.43 % area | 0.43 % area | 26.21 % area | 18.85 % area | CC(O)CC(=O)O (centres unmarked) [3-BHB-FS, 3-hydroxybutyric acid] | 0.04 % area | 2.60 % area | 0.02 % area | 2.60 | 0.02 | 0.04 |  |  |  |  |  |  |  | change of content in FaSSIF medium with porcine pancreatic lipase ([1]; pH 6.5): slight increase; conversion or cleavage, free acid formed ([2]; FaSSIF conditions using Panzytrat): 2.6%; change of content in FaSSIF medium [2]: slight increase; duration of ketosis [3]: about three to four; change of content in FaSSGF medium ([4]; pH 1.6): strong increase
2 |  |  |  |  |  |  |  | CC(O)CC(=O)OCC(CO)OC(=O)CC(C)O (centres unmarked) [3-BHB-DG, diglyceride of 3-hydroxybutyric acid] | 60.17 % area | 61.38 % area | 60.93 % area | 61.38 | 60.93 | 60.17 | 59.84 | 60.93 | 60.17 | 44.09 % area | 37.01 % area | 55.85 % area | 55.85 % area | change of content in FaSSGF medium [6]: significant decrease; cleavage of the individual glycerides by pancreatin [7]: cleaved by pancreatin to the free 3-hydroxybutyric acid
3 |  |  |  |  |  |  |  | CC(O)CC(=O)OC(C)CC(=O)OCC(O)CO (centres unmarked) [3-BHB-dimer-MG, monoglyceride of the dimer of 3-hydroxybutyric acid] | 0.42 % area |  | 0.44 % area | 0.00 | 0.44 | 0.42 | 0.16 | 0.44 | 0.42 | 0.22 % area | 0.16 % area | 0.39 % area | 0.39 % area | 
4 |  |  |  |  |  |  |  | CC(O)CC(=O)OCC(COC(=O)CC(C)O)OC(=O)CC(C)O (centres unmarked) [3-BHB-TG, triglyceride of 3-hydroxybutyric acid] | 16.40 % area | 12.83 % area | 16.79 % area | 12.83 | 16.79 | 16.40 | 13.38 | 16.79 | 16.40 | 10.12 % area | 7.55 % area | 16.08 % area | 16.08 % area | change of content in FaSSIF medium with porcine pancreatic lipase ([5]; FaSSIF, pH 6.5, 35° C., 24 hours, 1 wt.-% PPL type II): slight decrease; change of content in FaSSGF medium [6]: significant decrease; change of content in FaSSIF medium [2]: slight decrease; cleavage of the individual glycerides by pancreatin [7]: cleaved by pancreatin to the free 3-hydroxybutyric acid
5 |  |  |  |  |  |  |  | CC(O)CC(=O)OC(C)CC(=O)O (centres unmarked) [3-BHB dimer, dimer of 3-hydroxybutyrate] |  |  |  |  |  |  |  |  |  |  |  |  |  | before splitting 0 h [1]: 0.7%; with enzyme, 24 h, 35° C. ([1]; pH 6.5): 0.71%; without enzyme 24 h, 35° C. ([1]; pH 6.5): 0.72%; before splitting 0 h [8]: 0.70; share in chromatogram, FaSSIF 0 h, Start [8]: 0.70 % area; share in chromatogram, FaSSIF m.P. 24 h, 35° C. [8]: 0.72 % area; share in chromatogram, FaSSIF o.P. 24 h, 35° C. [8]: 0.72 % area; with Panzytrat 24 h, 35° C. ([8]; pH 6.5): 0.72; without Panzytrat 24 h, 35° C. ([8]; pH 6.5): 0.72; before splitting [4]: 0.71 % area; share in chromatogram, FaSSGF m.P. 24 h, 35° C. [4]: 0.45 % area; share in chromatogram, FaSSGF o.P. 24 h, 35° C. [4]: 0.35 % area; share in chromatogram, before splitting [4]: 0.71 % area
6 |  |  |  |  |  |  |  | CC(O)CC(=O)OC(C)CC(=O)O (centres unmarked) [3-BHB-dimer-FS, dimer of 3-hydroxybutyric acid] |  | 0.17 % area |  | 0.17 | 0.00 | 0.00 | 0.17 | 0.00 | 0.00 | 2.51 % area | 3.25 % area |  |  | 
7 |  |  |  |  |  |  |  | CC(O)CC(=O)OC(C)CC(=O)OCC(CO)OC(=O)CC(C)O (centres unmarked) [3-BHB-dimer-DG, diglyceride of the dimer of 3-hydroxybutyric acid] | 7.56 % area | 7.02 % area | 7.61 % area | 7.02 | 7.61 | 7.56 | 7.07 | 7.61 | 7.56 | 4.22 % area | 3.14 % area | 6.62 % area | 6.62 % area | 
8 |  |  |  |  |  |  |  | CC(O)CC(=O)OCC(O)CO (centres unmarked) [3-BHB-MG, monoglyceride of 3-hydroxybutyric acid] | 13.52 % area | 14.34 % area | 12.26 % area | 14.34 | 12.26 | 13.52 | 15.98 | 12.26 | 13.52 | 18.41 % area | 21.09 % area | 18.28 % area | 18.28 % area | cleavage of the individual glycerides by pancreatin [7]: cleaved by pancreatin to the free 3-hydroxybutyric acid
9 | 0.16% | 0.18% | 0.12% | 0.31 % area | 0.31 % area | 0.07 % area | 0.11 % area | CCOC(=O)CC(C)O (centres unmarked) [3-BHB-ethyl, 3-hydroxybutyric acid ethyl ester] | 0.16 % area | 0.20 % area | 0.18 % area | 0.20 | 0.18 | 0.16 |  |  |  |  |  |  |  | 
10 | 0.07% | 0.05% | 0.08% | 0.38 % area | 0.38 % area | 0.81 % area | 0.51 % area | OCC(O)CO [glycerol] | 0.07 % area | 0.07 % area | 0.05 % area | 0.07 | 0.05 | 0.07 |  |  |  |  |  |  |  | 
